Measured values from the kinase profiling compilation of Christmann-Franck et al. (2016).
One block for each compound: values may come before it.

What was measured:
Assay in all cases: Caliper, Mobility shift assay off-chip
ABL1 (human) = ABL1 (human) (UniProt P00519)
AKT3 (human) = AKT3 (human) (UniProt Q9Y243)
BRSK1 (human) = BRSK1 (human) (UniProt Q8TDC3)
CAMK2B (human) = CAMK2B (human) (UniProt Q13554)
CAMK2G (human) = CAMK2G (human) (UniProt Q13555)
CDK2 (human) = CDK2 (human) (UniProt P24941)
CHEK1 (human) = CHEK1 (human) (UniProt O14757)
CSNK1D (human) = CSNK1D (human) (UniProt P48730)
DCLK2 (human) = DCLK2 (human) (UniProt Q8N568)
DYRK1A (human) = DYRK1A (human) (UniProt Q13627)
FGFR2 (human) = FGFR2 (human) (UniProt P21802)
FGFR3 (human) = FGFR3 (human) (UniProt P22607)
GSK3B (human) = GSK3B (human) (UniProt P49841)
HCK (human) = HCK (human) (UniProt P08631)
Sequence of HCK (human) (P08631 whole entry, looked up): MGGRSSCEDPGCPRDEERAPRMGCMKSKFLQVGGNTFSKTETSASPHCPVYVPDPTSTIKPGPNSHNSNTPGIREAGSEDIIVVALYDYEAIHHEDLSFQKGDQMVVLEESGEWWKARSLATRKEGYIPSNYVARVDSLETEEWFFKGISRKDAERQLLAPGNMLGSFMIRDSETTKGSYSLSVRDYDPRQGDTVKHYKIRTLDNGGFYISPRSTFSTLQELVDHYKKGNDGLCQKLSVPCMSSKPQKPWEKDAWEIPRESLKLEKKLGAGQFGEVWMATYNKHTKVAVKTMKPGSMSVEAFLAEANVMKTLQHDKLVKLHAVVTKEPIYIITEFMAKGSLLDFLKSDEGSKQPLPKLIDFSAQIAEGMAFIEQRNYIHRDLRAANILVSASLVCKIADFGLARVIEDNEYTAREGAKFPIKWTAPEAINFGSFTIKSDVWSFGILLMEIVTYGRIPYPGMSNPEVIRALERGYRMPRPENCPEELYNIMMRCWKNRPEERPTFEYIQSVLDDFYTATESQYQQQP

IGF1R (human) = IGF1R (human) (UniProt P08069)
IRAK4 (human) = IRAK4 (human) (UniProt Q9NWZ3)
Sequence of IRAK4 (human) (Q9NWZ3 whole entry, looked up): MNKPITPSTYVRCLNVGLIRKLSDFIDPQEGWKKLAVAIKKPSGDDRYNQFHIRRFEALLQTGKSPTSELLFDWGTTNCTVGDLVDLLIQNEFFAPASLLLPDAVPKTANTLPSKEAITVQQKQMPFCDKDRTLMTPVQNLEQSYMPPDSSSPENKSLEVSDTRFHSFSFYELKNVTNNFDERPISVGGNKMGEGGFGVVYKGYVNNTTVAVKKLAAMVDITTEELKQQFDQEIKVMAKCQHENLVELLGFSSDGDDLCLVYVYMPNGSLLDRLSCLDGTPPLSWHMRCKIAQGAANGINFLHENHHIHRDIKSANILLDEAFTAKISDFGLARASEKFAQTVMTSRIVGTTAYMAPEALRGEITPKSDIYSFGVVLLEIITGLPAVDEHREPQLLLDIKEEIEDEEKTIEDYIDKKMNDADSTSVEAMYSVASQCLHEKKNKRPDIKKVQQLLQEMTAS

KDR (human) = KDR (human) (UniProt P35968)
LCK (human) = LCK (human) (UniProt P06239)
LYN (human) = LYN (human) (UniProt P07948)
MAP4K4 (human) = MAP4K4 (human) (UniProt O95819)
MAPK13 (human) = MAPK13 (human) (UniProt O15264)
Sequence of MAPK13 (human) (O15264 whole entry, looked up): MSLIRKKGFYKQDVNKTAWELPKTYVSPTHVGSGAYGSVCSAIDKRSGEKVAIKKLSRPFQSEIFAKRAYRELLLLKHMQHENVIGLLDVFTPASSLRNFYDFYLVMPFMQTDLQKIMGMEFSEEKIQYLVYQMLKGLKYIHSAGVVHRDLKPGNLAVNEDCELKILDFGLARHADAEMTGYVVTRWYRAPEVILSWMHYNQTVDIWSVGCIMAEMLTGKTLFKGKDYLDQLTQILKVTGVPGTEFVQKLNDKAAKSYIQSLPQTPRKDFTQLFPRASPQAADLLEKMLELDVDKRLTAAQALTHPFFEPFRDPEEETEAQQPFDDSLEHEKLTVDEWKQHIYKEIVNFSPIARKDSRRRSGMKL

MAPKAPK3 (human) = MAPKAPK3 (human) (UniProt Q16644)
PDGFRA (human) = PDGFRA (human) (UniProt P16234)
PIM1 (human) = PIM1 (human) (UniProt P11309)
PRKACA (human) = PRKACA (human) (UniProt P17612)
PRKCH (human) = PRKCH (human) (UniProt P24723)
PRKCQ (human) = PRKCQ (human) (UniProt Q04759)
Sequence of PRKCQ (human) (Q04759 whole entry, looked up): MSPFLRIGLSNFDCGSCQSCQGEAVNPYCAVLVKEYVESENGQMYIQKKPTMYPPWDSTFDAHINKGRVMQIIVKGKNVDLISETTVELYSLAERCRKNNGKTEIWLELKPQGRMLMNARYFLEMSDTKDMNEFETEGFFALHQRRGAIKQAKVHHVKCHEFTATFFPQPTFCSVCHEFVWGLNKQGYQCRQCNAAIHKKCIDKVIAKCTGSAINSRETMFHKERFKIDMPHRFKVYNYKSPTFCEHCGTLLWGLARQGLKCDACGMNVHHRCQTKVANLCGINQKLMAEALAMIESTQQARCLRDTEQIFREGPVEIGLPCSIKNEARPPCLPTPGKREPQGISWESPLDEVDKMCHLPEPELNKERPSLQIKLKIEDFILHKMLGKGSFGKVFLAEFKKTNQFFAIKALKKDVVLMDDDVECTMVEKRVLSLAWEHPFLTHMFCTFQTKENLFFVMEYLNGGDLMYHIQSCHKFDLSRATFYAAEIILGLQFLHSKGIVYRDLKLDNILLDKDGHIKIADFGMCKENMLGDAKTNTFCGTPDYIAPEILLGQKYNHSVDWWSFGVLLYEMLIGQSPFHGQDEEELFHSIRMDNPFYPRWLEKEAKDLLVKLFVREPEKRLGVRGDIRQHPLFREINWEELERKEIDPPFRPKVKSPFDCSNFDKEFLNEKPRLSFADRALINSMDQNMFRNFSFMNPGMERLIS

PRKCZ (human) = PRKCZ (human) (UniProt Q05513)
RPS6KA1 KD1 KD2 (human) = RPS6KA1 KD1 KD2 (human) (UniProt Q15418)
Sequence of RPS6KA1 KD1 KD2 (human) (Q15418 whole entry, looked up): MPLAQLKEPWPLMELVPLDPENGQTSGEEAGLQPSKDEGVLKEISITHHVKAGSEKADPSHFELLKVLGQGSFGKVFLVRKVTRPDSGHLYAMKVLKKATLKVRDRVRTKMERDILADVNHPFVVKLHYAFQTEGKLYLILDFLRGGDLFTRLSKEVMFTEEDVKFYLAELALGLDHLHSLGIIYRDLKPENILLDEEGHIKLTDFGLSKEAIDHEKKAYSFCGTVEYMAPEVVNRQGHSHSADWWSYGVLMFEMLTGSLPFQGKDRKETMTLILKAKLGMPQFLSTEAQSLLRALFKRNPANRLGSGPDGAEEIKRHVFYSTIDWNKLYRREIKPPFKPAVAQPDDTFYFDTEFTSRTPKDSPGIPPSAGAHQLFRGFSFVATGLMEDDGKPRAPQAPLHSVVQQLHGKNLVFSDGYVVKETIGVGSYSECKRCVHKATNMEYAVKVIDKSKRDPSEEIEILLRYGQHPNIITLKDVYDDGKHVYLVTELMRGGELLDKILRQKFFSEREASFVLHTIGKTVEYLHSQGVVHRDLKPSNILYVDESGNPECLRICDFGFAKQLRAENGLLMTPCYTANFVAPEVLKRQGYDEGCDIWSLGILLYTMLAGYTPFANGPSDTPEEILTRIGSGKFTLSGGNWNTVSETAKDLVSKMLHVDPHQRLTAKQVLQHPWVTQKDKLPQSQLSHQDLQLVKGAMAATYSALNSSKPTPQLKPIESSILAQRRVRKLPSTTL

SGK3 (human) = SGK3 (human) (UniProt Q96BR1)
SRC (human) = SRC (human) (UniProt P12931)
Sequence of SRC (human) (P12931 whole entry, looked up): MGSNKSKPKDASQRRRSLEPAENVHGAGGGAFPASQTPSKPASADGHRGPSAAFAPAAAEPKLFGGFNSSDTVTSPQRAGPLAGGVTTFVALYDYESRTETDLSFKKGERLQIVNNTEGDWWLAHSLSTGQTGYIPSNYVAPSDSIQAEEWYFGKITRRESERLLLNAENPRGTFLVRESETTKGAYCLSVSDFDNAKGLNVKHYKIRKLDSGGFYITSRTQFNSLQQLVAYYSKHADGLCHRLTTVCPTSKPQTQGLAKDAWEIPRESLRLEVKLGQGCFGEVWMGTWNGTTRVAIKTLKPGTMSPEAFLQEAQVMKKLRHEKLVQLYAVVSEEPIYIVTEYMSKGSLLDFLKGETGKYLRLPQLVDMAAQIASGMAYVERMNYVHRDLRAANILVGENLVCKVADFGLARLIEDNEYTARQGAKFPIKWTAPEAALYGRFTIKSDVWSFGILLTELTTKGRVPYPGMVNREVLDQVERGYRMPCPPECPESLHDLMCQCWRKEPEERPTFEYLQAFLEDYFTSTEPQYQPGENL

TSSK1B (human) = TSSK1B (human) (UniProt Q9BXA7)
ABL2 (human) = ABL2 (human) (UniProt P42684)
BRSK2 (human) = BRSK2 (human) (UniProt Q8IWQ3)

Sequence of CAMK2B (human) (Q13554 whole entry, looked up): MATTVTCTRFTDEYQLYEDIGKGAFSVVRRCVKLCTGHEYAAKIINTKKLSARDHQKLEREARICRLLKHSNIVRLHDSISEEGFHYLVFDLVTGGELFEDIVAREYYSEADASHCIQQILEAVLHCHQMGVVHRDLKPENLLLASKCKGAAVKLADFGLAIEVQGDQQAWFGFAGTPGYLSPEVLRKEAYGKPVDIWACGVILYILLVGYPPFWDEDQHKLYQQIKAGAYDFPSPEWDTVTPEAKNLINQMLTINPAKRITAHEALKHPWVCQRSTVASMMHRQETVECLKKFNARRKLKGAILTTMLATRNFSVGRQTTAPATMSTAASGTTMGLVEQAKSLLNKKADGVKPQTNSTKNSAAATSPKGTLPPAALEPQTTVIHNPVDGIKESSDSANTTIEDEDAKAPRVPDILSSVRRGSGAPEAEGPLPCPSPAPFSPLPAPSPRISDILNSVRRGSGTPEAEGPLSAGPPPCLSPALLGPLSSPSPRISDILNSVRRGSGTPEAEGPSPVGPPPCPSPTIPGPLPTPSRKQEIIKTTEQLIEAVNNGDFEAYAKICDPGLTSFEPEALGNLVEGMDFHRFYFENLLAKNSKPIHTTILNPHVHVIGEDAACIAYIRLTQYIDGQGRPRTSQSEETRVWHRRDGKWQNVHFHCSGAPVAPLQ
Sequence of BRSK1 (human) (Q8TDC3 whole entry, looked up): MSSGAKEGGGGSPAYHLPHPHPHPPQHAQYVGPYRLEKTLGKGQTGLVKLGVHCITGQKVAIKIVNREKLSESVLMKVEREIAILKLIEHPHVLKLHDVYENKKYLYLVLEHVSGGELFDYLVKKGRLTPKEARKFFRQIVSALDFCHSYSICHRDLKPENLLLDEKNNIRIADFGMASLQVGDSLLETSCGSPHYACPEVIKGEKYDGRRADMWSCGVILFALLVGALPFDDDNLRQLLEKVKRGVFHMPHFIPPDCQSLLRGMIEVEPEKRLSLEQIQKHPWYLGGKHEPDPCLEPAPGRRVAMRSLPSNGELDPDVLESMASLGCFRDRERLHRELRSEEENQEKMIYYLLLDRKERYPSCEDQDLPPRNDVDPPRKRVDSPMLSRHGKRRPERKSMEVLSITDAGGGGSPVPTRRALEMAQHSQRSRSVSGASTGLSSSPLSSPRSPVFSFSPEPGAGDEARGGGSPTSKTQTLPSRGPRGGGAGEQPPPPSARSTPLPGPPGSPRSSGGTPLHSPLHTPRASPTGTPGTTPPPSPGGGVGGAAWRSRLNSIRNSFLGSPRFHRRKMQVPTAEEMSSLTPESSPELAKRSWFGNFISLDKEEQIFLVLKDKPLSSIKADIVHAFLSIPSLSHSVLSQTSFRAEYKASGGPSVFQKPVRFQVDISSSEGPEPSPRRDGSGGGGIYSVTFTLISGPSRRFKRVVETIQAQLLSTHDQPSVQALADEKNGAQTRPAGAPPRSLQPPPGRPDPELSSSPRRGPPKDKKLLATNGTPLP

inhibition (ABL1 (human); compound 0.1 µM): 6.9%
inhibition (ABL1 (human); compound 1.0 µM): 22.9%
inhibition (AKT3 (human); compound 0.1 µM): 3.1%
inhibition (AKT3 (human); compound 1.0 µM): 3.13%
inhibition (BRSK1 (human); compound 0.1 µM): 5.6%
inhibition (BRSK1 (human); compound 1.0 µM): 12.5%
inhibition (CAMK2B (human); compound 0.1 µM): -21.3%
inhibition (CAMK2B (human); compound 1.0 µM): -19.3%
inhibition (CAMK2G (human); compound 0.1 µM): -17.9%
inhibition (CAMK2G (human); compound 1.0 µM): -1.6%
inhibition (CDK2 (human); compound 0.1 µM): 1.2%
inhibition (CDK2 (human); compound 1.0 µM): -3.9%
inhibition (CHEK1 (human); compound 0.1 µM): -7.9%
inhibition (CHEK1 (human); compound 1.0 µM): 3.1%
inhibition (CSNK1D (human); compound 0.1 µM): 7.6%
inhibition (CSNK1D (human); compound 1.0 µM): 11.1%
inhibition (DCLK2 (human); compound 0.1 µM): 1.7%
inhibition (DCLK2 (human); compound 1.0 µM): 8.4%
inhibition (DYRK1A (human); compound 0.1 µM): 6.2%
inhibition (DYRK1A (human); compound 1.0 µM): 32.9%
inhibition (FGFR2 (human); compound 0.1 µM): 21.8%
inhibition (FGFR2 (human); compound 1.0 µM): 47.9%
inhibition (FGFR3 (human); compound 0.1 µM): 41.1%
inhibition (FGFR3 (human); compound 1.0 µM): 57.9%
inhibition (GSK3B (human); compound 0.1 µM): -2.7%
inhibition (GSK3B (human); compound 1.0 µM): 9.3%
inhibition (HCK (human); compound 0.1 µM): -59.1%
inhibition (HCK (human); compound 1.0 µM): -1.6%
inhibition (IGF1R (human); compound 0.1 µM): -3.7%
inhibition (IGF1R (human); compound 1.0 µM): 1.8%
inhibition (IRAK4 (human); compound 0.1 µM): 6%
inhibition (IRAK4 (human); compound 1.0 µM): -8.2%
inhibition (KDR (human); compound 0.1 µM): 32.6%
inhibition (KDR (human); compound 1.0 µM): 64%
inhibition (LCK (human); compound 0.1 µM): 2.4%
inhibition (LCK (human); compound 1.0 µM): -1.7%
inhibition (LYN (human); compound 0.1 µM): -8.7%
inhibition (LYN (human); compound 1.0 µM): -2.3%
inhibition (MAP4K4 (human); compound 0.1 µM): 7.1%
inhibition (MAP4K4 (human); compound 1.0 µM): 1.8%
inhibition (MAPK13 (human); compound 0.1 µM): -3.2%
inhibition (MAPK13 (human); compound 1.0 µM): -9.3%
inhibition (MAPKAPK3 (human); compound 0.1 µM): 5.4%
inhibition (MAPKAPK3 (human); compound 1.0 µM): 5.7%
inhibition (PDGFRA (human); compound 0.1 µM): -19.1%
inhibition (PDGFRA (human); compound 1.0 µM): 15.5%
inhibition (PIM1 (human); compound 0.1 µM): -4.1%
inhibition (PIM1 (human); compound 1.0 µM): 3.7%
inhibition (PRKACA (human); compound 0.1 µM): -5.5%
inhibition (PRKACA (human); compound 1.0 µM): -1.1%
inhibition (PRKCH (human); compound 0.1 µM): -6.7%
inhibition (PRKCH (human); compound 1.0 µM): 0.2%
inhibition (PRKCQ (human); compound 0.1 µM): 5.2%
inhibition (PRKCZ (human); compound 0.1 µM): -6.7%
inhibition (PRKCZ (human); compound 1.0 µM): 1%
inhibition (RPS6KA1 KD1 KD2 (human); compound 0.1 µM): -12.4%
inhibition (RPS6KA1 KD1 KD2 (human); compound 1.0 µM): -3%
inhibition (SGK3 (human); compound 0.1 µM): -1.4%
inhibition (SGK3 (human); compound 1.0 µM): 3.9%
inhibition (SRC (human); compound 0.1 µM): 0.2%
inhibition (SRC (human); compound 1.0 µM): 1.3%
inhibition (TSSK1B (human); compound 0.1 µM): -0.9%
inhibition (TSSK1B (human); compound 1.0 µM): 1%
SMILES: Cn1cc(-c2cnc3ccc4ccc(CS(N)(=O)=O)cc4c(=O)c3c2)cn1

inhibition (ABL1 (human); compound 0.01 µM): 3.8%
inhibition (ABL1 (human); compound 0.1 µM): 3.4%
inhibition (ABL2 (human); compound 0.01 µM): -2.4%
inhibition (ABL2 (human); compound 0.1 µM): -4.3%
inhibition (AKT3 (human); compound 0.01 µM): -2.7%
inhibition (AKT3 (human); compound 0.1 µM): 5.2%
inhibition (BRSK1 (human); compound 0.01 µM): -2.1%
inhibition (BRSK1 (human); compound 0.1 µM): -1.6%
inhibition (BRSK2 (human); compound 0.01 µM): 0.3%
inhibition (BRSK2 (human); compound 0.1 µM): 9.7%
inhibition (CAMK2B (human); compound 0.01 µM): 4.4%
inhibition (CAMK2B (human); compound 0.1 µM): -5.2%
inhibition (CAMK2G (human); compound 0.01 µM): 13.5%
inhibition (CAMK2G (human); compound 0.1 µM): -2.8%
inhibition (CDK2 (human); compound 0.01 µM): -2.1%
inhibition (CDK2 (human); compound 0.1 µM): 11.7%
inhibition (CHEK1 (human); compound 0.01 µM): 4.3%
inhibition (CHEK1 (human); compound 0.1 µM): 1.3%
inhibition (CSNK1D (human); compound 0.01 µM): -3.5%
inhibition (CSNK1D (human); compound 0.1 µM): 8.9%
inhibition (DCLK2 (human); compound 0.01 µM): 1.7%
inhibition (DCLK2 (human); compound 0.1 µM): 7.8%
inhibition (DYRK1A (human); compound 0.01 µM): -1%
inhibition (DYRK1A (human); compound 0.1 µM): 6.4%
inhibition (FGFR2 (human); compound 0.01 µM): 0.5%
inhibition (FGFR2 (human); compound 0.1 µM): 16.5%
inhibition (FGFR3 (human); compound 0.01 µM): -4%
inhibition (FGFR3 (human); compound 0.1 µM): 7.8%
inhibition (GSK3B (human); compound 0.01 µM): 4.9%
inhibition (GSK3B (human); compound 0.1 µM): 1.3%
inhibition (HCK (human); compound 0.01 µM): 3.5%
inhibition (HCK (human); compound 0.1 µM): 7.6%
inhibition (IGF1R (human); compound 0.01 µM): 3.9%
inhibition (IGF1R (human); compound 0.1 µM): -7.9%
inhibition (IRAK4 (human); compound 0.01 µM): -10%
inhibition (IRAK4 (human); compound 0.1 µM): 6.7%
inhibition (KDR (human); compound 0.01 µM): 3.5%
inhibition (KDR (human); compound 0.1 µM): -10%
inhibition (LCK (human); compound 0.01 µM): 8.2%
inhibition (LCK (human); compound 0.1 µM): 7.3%
inhibition (LYN (human); compound 0.01 µM): 9.1%
inhibition (LYN (human); compound 0.1 µM): 3.6%
inhibition (MAP4K4 (human); compound 0.01 µM): -2.1%
inhibition (MAP4K4 (human); compound 0.1 µM): 9.2%
inhibition (MAPK13 (human); compound 0.01 µM): -5.2%
inhibition (MAPK13 (human); compound 0.1 µM): -3%
inhibition (MAPKAPK3 (human); compound 0.01 µM): -8%
inhibition (MAPKAPK3 (human); compound 0.1 µM): 4.1%
inhibition (PDGFRA (human); compound 0.01 µM): 0.2%
inhibition (PDGFRA (human); compound 0.1 µM): 9%
inhibition (PIM1 (human); compound 0.01 µM): -11.4%
inhibition (PIM1 (human); compound 0.1 µM): -4.6%
inhibition (PRKACA (human); compound 0.01 µM): 2.8%
inhibition (PRKACA (human); compound 0.1 µM): -0.1%
inhibition (PRKCH (human); compound 0.01 µM): -2.5%
inhibition (PRKCH (human); compound 0.1 µM): -14.9%
inhibition (PRKCQ (human); compound 0.01 µM): -6.4%
inhibition (PRKCQ (human); compound 0.1 µM): -1.3%
inhibition (PRKCZ (human); compound 0.01 µM): 1.8%
inhibition (PRKCZ (human); compound 0.1 µM): 3.6%
inhibition (RPS6KA1 KD1 KD2 (human); compound 0.01 µM): 1.3%
inhibition (RPS6KA1 KD1 KD2 (human); compound 0.1 µM): 3.4%
inhibition (SGK3 (human); compound 0.01 µM): 4.9%
inhibition (SGK3 (human); compound 0.1 µM): 17.7%
inhibition (SRC (human); compound 0.01 µM): 2.2%
inhibition (SRC (human); compound 0.1 µM): -1.4%
inhibition (TSSK1B (human); compound 0.01 µM): -3.1%
inhibition (TSSK1B (human); compound 0.1 µM): 1.9%
SMILES: Cn1cc(-c2cnc3ccc4ccc(CS(=O)(=O)NC5CCCCC5)cc4c(=O)c3c2)cn1
